Assay results as given in PubChem BioAssay (NCI).
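Growth conditions: 96-well plates. Treatment: test compound, 48 hours, 5 concentrations. Analysis: linear interpolation between bracketing concentrations; unreached endpoints set to highest concentration. TGI denotes the concentration required for complete inhibition of growth.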

Tests used:
Assay in all cases: NCI anticancer screen, dose series, 48 h
OVCAR-8 ovarian = system: OVCAR-8 ovarian
SF-539 CNS = system: SF-539 CNS
KM12 colon = system: KM12 colon
MOLT-4 leukemia = system: MOLT-4 leukemia
SF-295 CNS = system: SF-295 CNS
NCI-H23 lung = system: NCI-H23 lung
IGROV1 ovarian = system: IGROV1 ovarian
MALME-3M melanoma = system: MALME-3M melanoma
ACHN renal = system: ACHN renal
SF-268 CNS = system: SF-268 CNS
CAKI-1 renal = system: CAKI-1 renal
A498 renal = system: A498 renal

Row | Structure (SMILES) | TGI (OVCAR-8 ovarian) | TGI (SF-539 CNS) | TGI (KM12 colon) | TGI (MOLT-4 leukemia) | TGI (SF-295 CNS) | TGI (NCI-H23 lung) | TGI (IGROV1 ovarian) | TGI (MALME-3M melanoma) | TGI (ACHN renal) | TGI (SF-268 CNS) | TGI (CAKI-1 renal) | TGI (A498 renal)
1 | COc1ccc2c(c1OC)C(=O)N/C2=C\c1c(CCN(C)C)cc2c(c1OC)OCO2 | > 100 µM | > 100 µM | > 100 µM | > 100 µM | > 100 µM | > 100 µM | > 100 µM | > 100 µM | > 100 µM | > 100 µM | – | –
2 | Cc1cc(S(=O)(=O)NC(=NCCc2ccccc2)NN)c(S)cc1Cl | 35.2 µM | 51.3 µM | 66.7 µM | 63.9 µM | – | – | > 100 µM | 68.6 µM | – | 79.7 µM | > 100 µM | –
3 | CCN(CC)Cc1cc(Nc2ccnc3ccc4nn(C)nc4c23)ccc1O | 50.7 µM | 26.5 µM | 25.9 µM | > 100 µM | 29.1 µM | 29.9 µM | 99 µM | 31.3 µM | 68.3 µM | 36.4 µM | > 100 µM | –
4 | S=C1CC(c2ccccc2)Sc2cc(Cl)ccc2N1 (centres undefined) | 31.3 µM | – | > 100 µM | 28.2 µM | 12.6 µM | 22.2 µM | 84.5 µM | 93.6 µM | 27 µM | 24.7 µM | 29 µM | –
5 | Cc1ccc(C(=O)Oc2ccc(/C=C3\CCC/C(=C\c4ccc(OC(=O)c5ccc(C)cc5)cc4)C3=O)cc2)cc1 | > 100 µM | > 100 µM | > 100 µM | > 100 µM | > 100 µM | > 100 µM | > 100 µM | – | > 100 µM | > 100 µM | > 100 µM | –
6 | Cc1ccccc1Nc1nc(NNC(=O)Cc2ccccc2)nc(NNC(=O)c2ccncc2)n1 | > 10 µM | > 10 µM | > 10 µM | > 10 µM | – | – | > 10 µM | > 10 µM | – | > 10 µM | > 10 µM | –
7 | Nc1cc(Cl)ccc1SSc1ccc(Cl)cc1N | > 100 µM | 31.5 µM | 24.6 µM | > 100 µM | 25.6 µM | 20.4 µM | 25.5 µM | 36.3 µM | 21.3 µM | 83.5 µM | 35.7 µM | –
8 | O=c1[nH]c2c(c(=O)[nH]1)C(c1ccc([N+](=O)[O-])cc1)c1c([nH]c(=O)[nH]c1=O)O2 | > 100 µM | – | > 100 µM | – | > 100 µM | > 100 µM | > 100 µM | – | > 100 µM | > 100 µM | > 100 µM | > 100 µM
9 | CC1=CC(=O)N(n2c(-c3ccccc3)n[nH]c2=O)C1=O | > 100 µM | > 100 µM | > 100 µM | > 100 µM | > 100 µM | > 100 µM | > 100 µM | > 100 µM | > 100 µM | > 100 µM | > 100 µM | –
10 | O=c1[nH]c(=O)n(CCOc2ccc(Cl)cc2)cc1Nc1ccccc1 | – | – | > 100 µM | > 100 µM | > 100 µM | > 100 µM | > 100 µM | – | > 100 µM | > 100 µM | > 100 µM | > 100 µM
11 | C=CC1(c2ccc3ccccc3c2)OCC(CC)O1 (centres undefined) | > 100 µM | – | > 100 µM | 87.9 µM | > 100 µM | 96.2 µM | > 100 µM | 93.2 µM | > 100 µM | > 100 µM | – | –
12 | C=CCCCC1(C)CCNC1=S (centres undefined) | > 100 µM | > 100 µM | – | > 100 µM | > 100 µM | > 100 µM | > 100 µM | – | > 100 µM | > 100 µM | > 100 µM | > 100 µM
13 | CCOC(=O)c1sc2nc1CSc1sc(=S)sc1SCc1nc(sc1C(=O)OCC)-c1nc(c(C(=O)OCC)s1)CSc1sc(=S)sc1SCc1nc-2sc1C(=O)OCC | > 10 µM | > 10 µM | > 10 µM | > 10 µM | > 10 µM | > 10 µM | > 10 µM | > 10 µM | > 10 µM | > 10 µM | > 10 µM | –
14 | CC(=O)n1[nH]c(=O)n(-c2ccccc2)c1=O | > 100 µM | – | > 100 µM | > 100 µM | > 100 µM | > 100 µM | > 100 µM | > 100 µM | > 100 µM | > 100 µM | > 100 µM | –
15 | COc1cc(C2c3cc4c(cc3OC(NCCO)C2C)OCO4)cc(OC)c1O (centres undefined) | > 100 µM | 42.2 µM | > 100 µM | – | > 100 µM | > 100 µM | > 100 µM | > 100 µM | – | > 100 µM | > 100 µM | –
16 | CCOC(=O)C(NC(=O)CC)(Nc1ccc(F)cc1F)C(F)(F)F (centres undefined) | > 100 µM | > 100 µM | – | > 100 µM | – | > 100 µM | > 100 µM | – | > 100 µM | > 100 µM | – | > 100 µM
17 | CCOC(=O)N/N=C(\CC)OCC | > 100 µM | > 100 µM | > 100 µM | > 100 µM | > 100 µM | – | > 100 µM | > 100 µM | > 100 µM | > 100 µM | > 100 µM | –
18 | CCCCC1(O)CC2CC1C(C)C2(C)C (centres undefined) | > 100 µM | > 100 µM | > 100 µM | > 100 µM | > 100 µM | > 100 µM | > 100 µM | > 100 µM | – | > 100 µM | > 100 µM | –
